From patent publication US10227344B2, “CK2 inhibitors, compositions and methods thereof” (Polaris Pharmaceuticals, Inc., priority 2016, dated 2019)
Counter-ions that a name gives are not always drawn.

Target: purified CK2α enzyme (Homo sapiens, UniProt P68400)
Assay: CK2 Protein Kinase Inhibition Assay (coupled PK/LDH assay)
Assay type: biochemical
Conditions: CK2 enzyme 25 nM, 100 μM ATP, 37° C., Morrison equation
Procedure: A coupled PK (pyruvate kinase)/LDH (lactate dehydrogenase) assay was used to measure compounds' ability to inhibit purified CK2α enzyme.
The ADP product of kinase CK2a is the cofactor for PK. Phospho(enol)pyruvate (PEP) PEP is metabolized by pyruvate kinase to yield pyruvate, which is the substrate for LDH.
Serially diluted compounds were pre-incubated for 10 min at 37° C. with and 1.5 mM […] peptide substrate, 6 U/ml PK and 10 U/ml LDH (purchased from Sigma-Aldrich), 100 μM ATP, 1.2 mM NADH, 4 mM PEP in the reaction buffer (50 mM Tris (pH 8.25), 0.1 M NaCl, 10 mM magnesium acetate). The reaction was initiated by the addition of an equal volume of purified CK2 enzyme (final concentration 25 nM) diluted in the reaction buffer. Absorbance at 340 nm was measured overtime (for 30 min) at 37° C.; as NADH was converted to NAD+ the absorbance decreases. Absorbance decrease rate (per min) was plotted against the compound concentration and Ki is determined by GraphPad Prism using Morrison equation. All data points were performed in triplicate and each compound was tested in at least two separate experiments.
To this end, K, values of less than 2.5 nM are labelled as “+++”, from 2.5 nM to 10 nM are labelled as “++”, and greater than 10 nM are labelled as “+”.

purified CK2α enzyme, sequence (P68400 whole entry): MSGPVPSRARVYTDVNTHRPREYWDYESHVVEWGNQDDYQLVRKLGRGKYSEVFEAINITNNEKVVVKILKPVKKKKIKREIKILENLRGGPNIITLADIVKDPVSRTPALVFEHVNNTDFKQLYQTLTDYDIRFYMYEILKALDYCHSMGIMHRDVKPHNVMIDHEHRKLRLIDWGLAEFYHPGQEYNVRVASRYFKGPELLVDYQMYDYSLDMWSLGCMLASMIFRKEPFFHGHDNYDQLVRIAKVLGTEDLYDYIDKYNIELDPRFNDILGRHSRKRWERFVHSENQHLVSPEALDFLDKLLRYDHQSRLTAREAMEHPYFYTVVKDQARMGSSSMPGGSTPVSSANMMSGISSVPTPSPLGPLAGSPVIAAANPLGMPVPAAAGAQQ

Ki [nM] | Compound
< 2.5 | C[S+]([O-])Cc1cc(Nc2cc(NC3CC3)n3ncc(C#N)c3n2)ccc1Cl (racemic) [Example 1, (±)-5-((4-Chloro-3-((methylsulfinyl)methyl)phenyl)amino)-7-(cyclopropylamino)pyrazolo[1,5-a]pyrimidine-3-carbonitrile]
2.5 to 10 | C[S+]([O-])Cc1cc(Nc2cc(NC3CC3)n3ncc(C#N)c3n2)ccc1F (racemic) [Example 5, (±)-7-(Cyclopropylamino)-5-((4-fluoro-3-((methylsulfinyl)methyl)phenyl)amino)pyrazolo[1,5-a]pyrimidine-3-carbonitrile]
2.5 to 10 | C[S+]([O-])Cc1cc(Nc2cc(NC3CC3)n3ncc(C#N)c3n2)ccc1C#N (racemic) [Example 6, (±)-5-((4-Cyano-3-((methylsulfinyl)methyl)phenyl)amino)-7-(cyclopropylamino)pyrazolo[1,5-a]pyrimidine-3-carbonitrile]
< 2.5 | CN(CCN)c1ccc(Nc2cc(NC3CC3)n3ncc(C#N)c3n2)cc1C[S+](C)[O-] (racemic) [Example 7, (±)-5-((4-((2-Aminoethyl)(methyl)amino)-3-((methylsulfinyl)methyl)phenyl)amino)-7-(cyclopropylamino)pyrazolo[1,5-a]pyrimidine-3-carbonitrile mono trifluoroacetic acid salt]
< 2.5 | C[S+]([O-])Cc1cc(Nc2cc(NC3CC3)n3ncc(C#N)c3n2)ccc1CCN (racemic) [Example 8, (±)-5-((4-(2-Aminoethyl)-3-((methylsulfinyl)methyl)phenyl)amino)-7-(cyclopropylamino)pyrazolo[1,5-a]pyrimidine-3-carbonitrile mono trifluoroacetic acid salt]
2.5 to 10 | CS(=N)(=O)Cc1cc(Nc2cc(NC3CC3)n3ncc(C#N)c3n2)ccc1Cl (racemic) [Example 12, (±)-5-((4-Chloro-3-((S-methylsulfonimidoyl)methyl)phenyl)amino)-7-(cyclopropylamino)pyrazolo[1,5-a]pyrimidine-3-carbonitrile]
< 2.5 | C[S+]([O-])Cc1cc(Nc2cc(NC3CC3)n3ncc(C#N)c3n2)ccc1C1CC1 (racemic) [Example 13, (±)-5-((4-Cyclopropyl-3-((methylsulfinyl)methyl)phenyl)amino)-7-(cyclopropylamino)pyrazolo[1,5-a]pyrimidine-3-carbonitrile]
2.5 to 10 | C[S+]([O-])Cc1cc(Nc2cc(NC3CC3)n3ncc(C#N)c3n2)ccc1N1CCNCC1 (racemic) [Example 14, (±)-7-(Cyclopropylamino)-5-((3-((methylsulfinyl)methyl)-4-(piperazin-1-yl)phenyl)amino)pyrazolo[1,5-a]pyrimidine-3-carbonitrile mono trifluoroacetic acid salt]
2.5 to 10 | C[S+]([O-])Cc1cc(Nc2cc(NC3CC3)n3ncc(C#N)c3n2)ccc1CN (racemic) [Example 15, (±)-5-((4-(Aminomethyl)-3-((methylsulfinyl)methyl)phenyl)amino)-7-(cyclopropylamino)pyrazolo[1,5-a]pyrimidine-3-carbonitrile mono trifluoroacetic acid salt]
< 2.5 | CN(CC1CC1)c1ccc(Nc2cc(NC3CC3)n3ncc(C#N)c3n2)cc1C[S+](C)[O-] (racemic) [Example 16, (±)-7-(Cyclopropylamino)-5-((4-((cyclopropylmethyl)(methyl)amino)-3-((methylsulfinyl)methyl)phenyl)amino)pyrazolo[1,5-a]pyrimidine-3-carbonitrile]
< 2.5 | CNCCN(C)c1ccc(Nc2cc(NC3CC3)n3ncc(C#N)c3n2)cc1C[S+](C)[O-] (racemic) [Example 21, (±)-7-(Cyclopropylamino)-5-((4-(methyl(2-(methylamino)ethyl)amino)-3-((methylsulfinyl)methyl)phenyl)amino)pyrazolo[1,5-a]pyrimidine-3-carbonitrile mono trifluoroacetic acid salt]
< 2.5 | C[S+]([O-])Cc1cc(Nc2cc(NC3CC3)n3ncc(C#N)c3n2)ccc1N1CC(O)C1 (racemic) [Example 27, (±)-7-(cyclopropylamino)-5-((4-(3-hydroxyazetidin-1-yl)-3-((methylsulfinyl)methyl)phenyl)amino)pyrazolo[1,5-a]pyrimidine-3-carbonitrile]
2.5 to 10 | C[S+]([O-])Cc1cc(Nc2cc(NC3CC3)n3ncc(C#N)c3n2)ccc1OCC1(N)CC1 (racemic) [Example 28, (±)-5-((4-((1-aminocyclopropyl)methoxy)-3-((methylsulfinyl)methyl)phenyl)amino)-7-(cyclopropylamino)pyrazolo[1,5-a]pyrimidine-3-carbonitrile mono trifluoroacetic acid salt]
2.5 to 10 | C[S+]([O-])Cc1cc(Nc2cc(NC3CC3)n3ncc(C#N)c3n2)ccc1OCC(C)(C)N (racemic) [Example 30, (±)-5-((4-(2-amino-2-methylpropoxy)-3-((methylsulfinyl)methyl)phenyl)amino)-7-(cyclopropylamino)pyrazolo[1,5-a]pyrimidine-3-carbonitrile mono trifluoroacetic acid salt]
> 10 | C[S+]([O-])Cc1cc(Nc2cc(NC3CC3)n3ncc(C#N)c3n2)ccc1-c1cn[nH]c1 (racemic) [Example 35, (±)-7-(Cyclopropylamino)-5-((3-((methylsulfinyl)methyl)-4-(1H-pyrazol-4-yl)phenyl)amino)pyrazolo[1,5-a]pyrimidine-3-carbonitrile]
< 2.5 | CN(c1ccc(Nc2cc(NC3CC3)n3ncc(C#N)c3n2)cc1C[S+](C)[O-])C1CC1 (racemic) [Example 36, (±)-5-((4-(Cyclopropyl(methyl)amino)-3-((methylsulfinyl)methyl)phenyl)amino)-7-(cyclopropylamino)pyrazolo[1,5-a]pyrimidine-3-carbonitrile]
2.5 to 10 | C[S+]([O-])Cc1cc(Nc2cc(NC3CC3)n3ncc(C#N)c3n2)ccc1C1(CN)CC1 (racemic) [Example 38, (±)-5-((4-(1-(Aminomethyl)cyclopropyl)-3-((methylsulfinyl)methyl)phenyl)amino)-7-(cyclopropylamino)pyrazolo[1,5-a]pyrimidine-3-carbonitrile]
< 2.5 | C[S+]([O-])Cc1cc(Nc2cc(NC3CC3)n3ncc(C#N)c3n2)ccc1N1CC(N)C1 (racemic) [Example 40, (±)-5-((4-(3-Aminoazetidin-1-yl)-3-((methylsulfinyl)methyl)phenyl)amino)-7-(cyclopropylamino)pyrazolo[1,5-a]pyrimidine-3-carbonitrile]
< 2.5 | C[S+]([O-])Cc1cc(Nc2cc(NC3CC3)n3ncc(C#N)c3n2)ccc1N1CC(CN)C1 (racemic) [Example 42, (±)-5-((4-(3-(Aminomethyl)azetidin-1-yl)-3-((methylsulfinyl)methyl)phenyl)amino)-7-(cyclopropylamino)pyrazolo[1,5-a]pyrimidine-3-carbonitrile]
2.5 to 10 | CN(c1ccc(Nc2cc(NC3CC3)n3ncc(C#N)c3n2)cc1C[S+](C)[O-])C1CNC1 (racemic) [Example 44, (±)-5-((4-(Azetidin-3-yl(methyl)amino)-3-((methylsulfinyl)methyl)phenyl)amino)-7-(cyclopropylamino)pyrazolo[1,5-a]pyrimidine-3-carbonitrile]
< 2.5 | C[S+]([O-])Cc1cc(Nc2cc(NC3CC3)n3ncc(C#N)c3n2)ccc1N1CCCC1 (racemic) [Example 46, (±)-7-(Cyclopropylamino)-5-((3-((methylsulfinyl)methyl)-4-(pyrrolidin-1-yl)phenyl)amino)pyrazolo[1,5-a]pyrimidine-3-carbonitrile]
2.5 to 10 | CN(CCN)c1ccc(Nc2cc(NC3CC3)c3ncc(C#N)n3n2)cc1C[S+](C)[O-] (racemic) [Example 47, (±)-6-((4-((2-Aminoethyl)(methyl)amino)-3-((methylsulfinyl)methyl)phenyl)amino)-8-(cyclopropylamino)imidazo[1,2-b]pyridazine-3-carbonitrile mono trifluoroacetic acid salt]
2.5 to 10 | CN(CCN)c1ccc(Nc2nc(NC3CC3)c3ncc(C#N)n3n2)cc1C[S+](C)[O-] (racemic) [Example 49, (±)-2-((4-((2-aminoethyl)(methyl)amino)-3-((methylsulfinyl)methyl)phenyl)amino)-4-(cyclopropylamino)imidazo[2,1-f][1,2,4]triazine-7-carbonitrile mono trifluoroacetic acid salt]
< 2.5 | CN(CCN)c1ccc(Nc2nc(NC3CC3)n3ncc(C#N)c3n2)cc1C[S+](C)[O-] (racemic) [Example 51, (±)-2-((4-((2-aminoethyl)(methyl)amino)-3-((methylsulfinyl)methyl)phenyl)amino)-4-(cyclopropylamino)pyrazolo[1,5-a][1,3,5]triazine-8-carbonitrile mono trifluoroacetic acid salt]
< 2.5 | C[S+]([O-])Cc1cc(Nc2cc(Nc3ccccn3)n3ncc(C#N)c3n2)ccc1C1CC1 (racemic) [Example 54, (±)-5-((4-Cyclopropyl-3-((methylsulfinyl)methyl)phenyl)amino)-7-(pyridin-2-ylamino)pyrazolo[1,5-a]pyrimidine-3-carbonitrile]
